This passage reports IC50 results from patent publication US20210292340A1, “CELL NECROSIS INHIBITOR, PREPARATION METHOD THEREFOR AND USE THEREOF” (SHANGHAI INSTITUTE OF ORGANIC CHEMISTRY, CHINESE ACADEMY OF …, priority 2018, published 2021).

Bounds are passed on as bounds.

For one experiment, the system named is Jurkat (FADD−/−) cells. The experiment is described as follows: Inhibition of TNF-induced programmed Jurkat (FADD−/−) cell necrosis (Cell Titer-Glo). It counts as cell-based, human. Conditions: Homo sapiens, Jurkat, 20 h, TNF 10 ng/mL, intracellular ATP level, read-out: Cellular IC50 (M) Jurkat (FADD−/−). Here is the method:
Two replicate wells were set for each concentration of each compound.
Jurkat (FADD^−/−) cells (human-derived peripheral blood leukemia T cell line, with FADD gene knocked out) were cultured in vitro. After growing to logarithmic growth phase, the cells were harvested, and centrifuged at 1000 rpm for 5 min. The supernatant was discarded, and the cells were resuspended in fresh medium and adjusted to a cell density of 5×10^5/mL. The cell suspension was added to the culture plate containing the drug (40 μL per well). In the treatment groups, 10 μL of TNF (tumor necrosis factor, final concentration 10 ng/mL) diluted with the cell culture medium was added to each well, and incubated for 20 h in a cell incubator (37° C., 5% CO2). Subsequently, 50 μL of Cell Titer-Glo solution was added to each well and incubated at room temperature for 10 min. Then, the luminescence was detected on BioTek plate reader to measure the intracellular ATP level. The effect of the test compounds in inhibiting TNF-induced cell necrosis was calculated from the full-activity well and background well (with the untreated DMSO control well as 100% cell viability), and the half inhibitory concentration (IC50) of the compound was calculated by Graphpad Prism statistical software.
On the technique in general: ATP-based viability assays read luminescence as a measure of living cells.
For `CN1C(=O)[C@@H](NC(=O)c2cc(Cc3ccccc3)on2)CSc2ccc3cnccc3c21` [RIP1-106], the IC50 came out at 7.47e-10 M. With `Cc1ccc(Cc2cc(C(=O)N[C@H]3CSc4cc5c(ccn5C)cc4N(C)C3=O)n(C)n2)cc1` [RIP1-057], the IC50 is over 2e-06 M. Still for that read-out and setting: next, `Cc1ccc(Cc2cc(C(=O)N[C@H]3CSc4cc5c(ccn5C)cc4N(C)C3=O)nn2C)cc1` [RIP1-056]: 4.15e-08 M. Take `Cc1nc2cc3c(cc2[nH]1)OC[C@H](NC(=O)c1coc(Cc2ccccc2)n1)C(=O)N3C` [RIP1-065]: the IC50 is over 2e-06 M. Same read-out and setting: next, `CN1C(=O)[C@@H](NC(=O)c2cccc(Oc3ccccc3)n2)COc2ccc3ncccc3c21` [RIP1-194]: 7.28e-06 M.

On to `CN1C(=O)[C@@H](NC(=O)c2cc(Cc3ccccc3)on2)CSc2cc3c(ccn3Cc3ccccc3)cc21` [RIP1-085], for which the IC50 was over 2e-06 M. The same measure, in the same setting: next, `CN1C(=O)[C@@H](NC(=O)c2n[nH]c(Cc3ccccc3F)n2)COc2ccc3ncccc3c21` [RIP1-170]: 1.74e-09 M; `CN1C(=O)[C@@H](NC(=O)c2cn(Cc3ccccc3)cn2)CSc2cc3[nH]nc(Cl)c3cc21` [RIP1-028]: 7e-11 M; `CN1C(=O)[C@@H](NC(=O)c2n[nH]c(Cc3ccc(F)cc3)n2)COc2cc3occc3cc21` [RIP1-174]: 1.3e-08 M. On to `CN1C(=O)[C@@H](NC(=O)c2cc(Oc3ccccc3)ccn2)COc2cc3ncnc(O)c3cc21` [RIP1-188], for which the IC50 worked out at 1.93e-07 M.

With `O=C(N[C@H]1COc2ccc3cccnc3c2NC1=O)c1n[nH]c(Cc2ccccc2)n1` [RIP1-149], the IC50 is over 2e-06 M. Regarding `CN1C(=O)[C@@H](NC(=O)c2cc(Nc3ccccc3)ccn2)COc2ccc3ncccc3c21` [RIP1-200], the IC50 is 8.18e-08 M. Still for that read-out and setting: the figure for `CN1C(=O)[C@@H](NC(=O)c2n[nH]c(Cc3c(F)cc(F)cc3F)n2)COc2cc3ncoc3cc21` [RIP1-184] is 3.76e-08 M; for `CN1C(=O)[C@@H](NC(=O)c2ncn(Cc3ccccc3)n2)CSc2cc3[nH]ncc3cc21` [RIP1-020] it is 2.3e-10 M.

Consider `CN1C(=O)[C@@H](NC(=O)c2nnn(Cc3ccccc3)n2)CSc2cc3c(ccn3C)cc21` [RIP1-058], for which the IC50 is 2.53e-10 M. For `CN1C(=O)[C@@H](NC(=O)c2cc(Oc3ccccc3)ccn2)COc2ccc3ncccc3c21` [RIP1-179], the IC50 came out at 6.7e-10 M. Regarding `CN1C(=O)[C@@H](NC(=O)c2cncn2Cc2ccccc2)CSc2cc3c(ccn3C)cc21` [RIP1-054], the IC50 is over 2e-06 M. In the case of `CN1C(=O)[C@@H](NC(=O)c2ccc(Nc3ccccc3)cn2)COc2ccc3ncccc3c21` [RIP1-201], the IC50 was over 2e-05 M. Same read-out and setting: next, `CN1C(=O)[C@@H](NC(=O)c2n[nH]c(Cc3c(F)cc(F)cc3F)n2)COc2cc3occc3cc21` [RIP1-173]: 7e-08 M; `CN1C(=O)[C@@H](NC(=O)c2cnn(Cc3ccccc3)c2)CSc2cc3[nH]ncc3cc21` [RIP1-014]: 2.6e-08 M; `CN1C(=O)[C@@H](NC(=O)c2cncn2Cc2ccccc2)CSc2cc3[nH]ccc3cc21` [RIP1-005]: over 2e-06 M.

On to `Cc1nc2cc3c(cc2[nH]1)OC[C@H](NC(=O)c1nnc(Cc2ccccc2)o1)C(=O)N3C` [RIP1-070], for which the IC50 amounted to 2.15e-06 M. In the case of `CN1C(=O)[C@@H](NC(=O)c2cc(Oc3ccccc3)ccn2)COc2cc3[nH]ccc3cc21` [RIP1-189], the IC50 came out at 1.93e-10 M. On to `Cc1ccc(Cc2cc(C(=O)N[C@H]3COc4cc5occc5cc4N(C)C3=O)nn2C)cc1` [RIP1-124], for which the IC50 stood at 2.09e-08 M. On the same count and under the same terms, next, `CN1C(=O)[C@@H](NC(=O)c2cc(Oc3cc(F)cc(F)c3)ccn2)COc2ccc3ncccc3c21` [RIP1-205]: 7.11e-09 M; `CN1C(=O)[C@@H](NC(=O)c2cc(Oc3ccccc3)ccn2)COc2cc3nccnc3cc21` [RIP1-177]: 2.03e-09 M; `CN1C(=O)[C@@H](NC(=O)c2nnc(Cc3ccccc3)[nH]2)COc2cc3[nH]ccc3cc21` [RIP1-112]: 1.22e-09 M. As to `CN1C(=O)[C@@H](NC(=O)c2ncn(Cc3ccccc3)n2)CSc2cc3occc3cc21` [RIP1-037], the IC50 stood at 1.29e-10 M. On the same count and under the same terms, next, `CN1C(=O)[C@@H](NC(=O)c2nnc(Cc3ccccc3)[nH]2)CSc2ccc3ncccc3c21` [RIP1-092]: 1.05e-09 M; `CN1C(=O)[C@@H](NC(=O)c2cn(Cc3ccccc3)cn2)COc2cc3nccnc3cc21` [RIP1-129]: 7.94e-07 M. With `Cc1nc2cc3c(cc2[nH]1)OC[C@H](NC(=O)c1nnn(Cc2ccccc2)n1)C(=O)N3C` [RIP1-071], the IC50 was found to be 1.71e-08 M. `Cc1ccc(Cc2cc(C(=O)N[C@H]3CSc4cc5[nH]ccc5cc4N(C)C3=O)n(C)n2)cc1` [RIP1-044]: the IC50 amounted to 1.91e-08 M. As for `CN1C(=O)[C@@H](NC(=O)c2cn(Cc3ccccc3)nn2)COc2cc3nccnc3cc21` [RIP1-130], the IC50 was 5.43e-08 M. For `CN1C(=O)[C@@H](NC(=O)c2cn(Cc3ccccc3)nn2)CSc2cc3c(ccn3Cc3ccccc3)cc21` [RIP1-084], the IC50 was over 2e-06 M. The same measure, in the same setting: the figure for `CN1C(=O)[C@@H](NC(=O)c2cc(Oc3ccccc3)ccn2)COc2cc3[nH]nnc3cc21` [RIP1-181] is 5.92e-10 M; for `CN1C(=O)[C@@H](NC(=O)c2n[nH]c(Cc3cccc(F)c3)n2)COc2ccc3cnccc3c21` [RIP1-165] it is 2.5e-09 M; for `CN1C(=O)[C@@H](NC(=O)c2cc(Oc3ccccc3)ccn2)COc2cc3occc3cc21` [RIP1-180] it is 2.66e-10 M. Same read-out and setting: next, `CN1C(=O)[C@@H](NC(=O)c2cn(Cc3ccccc3)nn2)CSc2cc3[nH]ncc3cc21` [RIP1-019]: 6.8e-10 M. Still for that read-out and setting: next, `Cc1nc2cc3c(cc2[nH]1)OC[C@H](NC(=O)c1cccc(Cc2ccccc2)c1)C(=O)N3C` [RIP1-066]: 6.7e-07 M; `CN1C(=O)[C@@H](NC(=O)c2ncn(Cc3ccccc3)n2)COc2cc3nccnc3cc21` [RIP1-128]: 4.83e-07 M; `CN1C(=O)[C@@H](NC(=O)c2cn(Cc3ccccc3)cn2)COc2cc3[nH]ncc3cc21` [RIP1-022]: 5.66e-10 M. Consider `CN1C(=O)[C@@H](NC(=O)c2n[nH]c(Cc3cccc(F)c3)n2)COc2cc3nccnc3cc21` [RIP1-209], for which the IC50 is 1.92e-09 M. As to `CN1C(=O)[C@@H](NC(=O)c2cn(Cc3ccccc3)nn2)CSc2ccc3cnccc3c21` [RIP1-105], the IC50 was 3.22e-09 M. The same measure, in the same setting: the figure for `CN1C(=O)[C@@H](NC(=O)c2n[nH]c(Cc3ccccc3)n2)CSc2cc3[nH]ccc3cc21` [RIP1-001] is 1.38e-09 M; for `COc1ncnc2cc3c(cc12)N(C)C(=O)[C@@H](NC(=O)c1n[nH]c(Cc2ccc(F)cc2)n1)CO3` [RIP1-158] it is 8e-09 M; for `CN1C(=O)[C@@H](NC(=O)c2cc(Oc3ccccc3)ccn2)COc2cc3ncoc3cc21` [RIP1-186] it is 7.52e-10 M. Same read-out and setting: the figure for `CN1C(=O)[C@@H](NC(=O)c2cccc(Cc3ccccc3)c2)CSc2cc3[nH]ccc3cc21` [RIP1-007] is 3.4e-07 M; for `CN1C(=O)[C@@H](NC(=O)c2nnc(Cc3ccccc3)[nH]2)COc2cc3[nH]ncc3cc21` [RIP1-023] it is 2.54e-09 M. With `CN1C(=O)[C@@H](NC(=O)c2cc(Oc3cccnc3)ccn2)COc2cc3ncoc3cc21` [RIP1-212], the IC50 was determined as 1.81e-08 M. Still for that read-out and setting: the figure for `CN1C(=O)[C@@H](NC(=O)c2nnc(Cc3ccccc3)[nH]2)COc2cc3[nH]nnc3cc21` [RIP1-143] is 2.06e-07 M. Same read-out and setting: the figure for `Cc1nc2cc3c(cc2[nH]1)OC[C@H](NC(=O)c1cn(Cc2ccccc2)nn1)C(=O)N3C` [RIP1-063] is 4.57e-08 M.

The experiment is the same for the next values; noted with them: TNF 10 ng/mL, 20 h, intracellular ATP level; read-out: Cellular IC50 (M) Jurkat (FADD−/−).
As to `CN1C(=O)[C@@H](NC(=O)c2n[nH]c(Cc3ccccc3F)n2)COc2ccc3ncccc3c21` [RIP1-170], the IC50 is 3e-09 M.
